Laboratory results reported in patent US20120046329A1, “MODULATORS OF NOD1 AND NOD2 SIGNALING, METHODS OF IDENTIFYING MODULATORS OF NOD1 AND NOD2 SIGNALING, AND USES THEREOF” (Sanford-Burnham Medical Research Institute, priority 2010, published 2012).
≈ marks a conversion by molar mass, not a printed value. Like-named read-outs stand apart in the source and are kept apart here.

Columns and labels:
[1] = tested on: noncanonical NF-κB activation induced by BAFF; assay: NF-κB luciferase in 697 pre-B leukemia cells, BAFF; conditions: 697 cells, 10 μM
Protocol: Luciferase activity was measured 24 h later (mean±SD; n=3).
Gene reporter assays: HEK293T or 697 cells containing integrated 5×NFκB-driven luciferase reporter gene were seeded into 96-well plates at 10^4 to 10^5 cells per well, and treated with respective inducers for 16 to 24 hours. […] The next day, cells were transfected with 50 ng pNF-κB-LUC (Clontech) and 5 ng Renilla luciferase gene driven by a constitutive TK promoter (pRL-TK; Promega) along with indicated plasmids. After 24 h of transfection in some experiments, cells were stimulated with various agents for 24 h or directly lysed and luciferase activities were assayed using the Dual Luciferase kit (Promega). The results for firefly luciferase activity were normalized to renilla luciferase activity. […] The mean results were obtained from triplicates.

[2] = tested on: Fa2N-4 immortalized human hepatocytes; assay: Toxicity towards Fa2N-4 immortalized human hepatocytes; format: cell-based
Plasma stability, human = format: in vitro ADME
NOD2 [3] = target: T1, NOD2 (Homo sapiens, UniProt Q9HC29); assay: MDP-stimulated (NOD2-dependent) NF-κB reporter assay; conditions: reporter cell lines with low and overexpressed NOD2
[4] = In vivo RACE assay (pharmacokinetics, IP dosing); design: species or system wild type mice; conditions: mice
Text: In vivo RACE assay data was obtained for compound 1:
in conjunction with quantitative bioanalytical analysis to test its pharmacokinetics in wild type mice. […]

TNF-α induced NF-κB = assay: TNF-α-induced NF-κB luciferase reporter counterscreen, HEK293T; format: cell-based, human
NOD2 [5] = target: T1, NOD2; assay: Subcellular fractionation of MCF-7 cells expressing tagged NOD2; conditions: MCF-7, 5 μM, 24 h
Protocol: After 24 h treatment, cytosolic and membrane subcellular fractions were isolated and analyzed (10 μg protein) by immunoblotting using antibodies specific for α-tubulin (cytosolic marker), pan-cadherin (plasma membrane marker), NOD2 (using anti-FLAG antibodies) and RIP2.
For subcellular fractionation, cytosolic fractions were obtained by extensive resuspension of cell pellets into buffer A (10 mM Hepes 7.5, 1.5 mM MgCl2, 10 mM KCl, 0.5 mM DTT and protease inhibitors). […] Immunoblotting was performed using respective antibodies. Total lysates (50-60 μg) and subcellular fractions (10 μg) were also immunoblotted after protein quantification (Bio-Rad Protein Assay).

NOD2 [6] = target: T1, NOD2; assay: MDP-induced IL-8 secretion in MCF-7/NOD2 cells; conditions: MCF-7 cells, ELISA
[7] = Solubility in aqueous buffer
[8] = target: NOD1 association with RIP2, Bid, or SGT-1 (Homo sapiens, UniProt Q9Y239); assay: Co-immunoprecipitation of NOD1 with interacting proteins, HEK 293T; format: cell-based; conditions: over-expressing conditions, 5 μM
[9] = Microsomal stability, mouse; format: in vitro ADME
inflammasome = assay: IL-1β secretion ELISA in RAW264.7 cells, inflammasome activators; format: cell-based, mouse; conditions: RAW264.7, 5 μM
Text: Supernatants were collected after either 2 hrs (Salmonella infection) or 4 hrs (all others) and IL-1β levels were quantified by ELISA (mean+SD; n=3).
Many NLRs form complexes with caspase-1, creating so-called “inflammasomes” responsible for proteolytic processing of inflammatory cytokine interleukin 1-beta (IL-1β). […] (FIGS. 1D and 1G), indicating a lack of promiscuity towards other NLRs.
ELISA: For IL-8 ELISA, MCF7 cells stably expressing His6-FLAG-tagged NOD1 or NOD2 were produced by lentivirus infection. Cells were cultured up to 90% confluency. Assays were initiated using 5,000 cells per well (in 100 μl volume) of a 96-well transparent culture plate. […] Supernatants were collected into a new 96-well plate and stored at −80° C. IL-8 levels were measured using a human IL-8 ELISA (BD OptEIA™ Human IL-8 ELISA Set, BD Biosciences). For IL-1β ELISA, assays were initiated using 50,000 RAW264.7 cells per well (in 100 μl of Opti-Mem medium, Invitrogen) of a 96-well transparent culture plate. Cell treatments were performed as indicated. IL-1β levels were measured using mouse IL-1 beta ELISA Ready-Set-Go!™ Kit (E-Biosciences).

[10] = Plasma protein binding, human; format: in vitro ADME; conditions: for Plasma Protein Binding (% Bound): Human
Plasma stability, mouse = format: in vitro ADME
[11] = Plasma protein binding, mouse; format: in vitro ADME; conditions: for Plasma Protein Binding (% Bound): Mouse
[12] = Microsomal stability, human; format: in vitro ADME

T1 sequence (Q9HC29 whole entry): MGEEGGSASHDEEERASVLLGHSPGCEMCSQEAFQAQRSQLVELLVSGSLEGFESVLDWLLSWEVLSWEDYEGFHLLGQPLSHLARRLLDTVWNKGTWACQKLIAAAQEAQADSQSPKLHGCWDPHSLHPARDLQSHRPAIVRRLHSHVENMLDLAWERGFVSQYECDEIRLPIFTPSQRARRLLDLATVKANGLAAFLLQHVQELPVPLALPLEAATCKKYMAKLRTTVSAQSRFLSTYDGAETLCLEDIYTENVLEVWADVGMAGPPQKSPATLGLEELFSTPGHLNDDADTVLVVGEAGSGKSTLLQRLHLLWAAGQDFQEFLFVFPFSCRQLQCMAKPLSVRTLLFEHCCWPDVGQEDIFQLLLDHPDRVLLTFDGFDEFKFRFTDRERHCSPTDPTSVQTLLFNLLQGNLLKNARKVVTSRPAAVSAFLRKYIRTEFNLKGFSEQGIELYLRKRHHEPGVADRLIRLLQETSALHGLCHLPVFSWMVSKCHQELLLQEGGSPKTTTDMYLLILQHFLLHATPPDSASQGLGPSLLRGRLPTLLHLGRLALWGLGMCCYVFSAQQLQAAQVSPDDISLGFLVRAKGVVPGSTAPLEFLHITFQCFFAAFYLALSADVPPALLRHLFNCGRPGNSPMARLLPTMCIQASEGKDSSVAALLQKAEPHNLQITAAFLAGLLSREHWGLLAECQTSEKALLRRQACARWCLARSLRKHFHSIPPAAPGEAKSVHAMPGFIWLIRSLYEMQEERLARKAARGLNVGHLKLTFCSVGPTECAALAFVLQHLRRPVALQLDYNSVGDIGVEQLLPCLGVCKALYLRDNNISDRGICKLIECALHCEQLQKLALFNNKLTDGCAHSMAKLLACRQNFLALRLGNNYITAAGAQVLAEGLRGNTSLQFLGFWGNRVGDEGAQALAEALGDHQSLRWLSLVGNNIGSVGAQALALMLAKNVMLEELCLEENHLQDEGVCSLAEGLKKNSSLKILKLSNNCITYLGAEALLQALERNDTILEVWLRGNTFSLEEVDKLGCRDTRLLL
NOD1 association with RIP2, Bid, or SGT-1, sequence (Q9Y239 whole entry): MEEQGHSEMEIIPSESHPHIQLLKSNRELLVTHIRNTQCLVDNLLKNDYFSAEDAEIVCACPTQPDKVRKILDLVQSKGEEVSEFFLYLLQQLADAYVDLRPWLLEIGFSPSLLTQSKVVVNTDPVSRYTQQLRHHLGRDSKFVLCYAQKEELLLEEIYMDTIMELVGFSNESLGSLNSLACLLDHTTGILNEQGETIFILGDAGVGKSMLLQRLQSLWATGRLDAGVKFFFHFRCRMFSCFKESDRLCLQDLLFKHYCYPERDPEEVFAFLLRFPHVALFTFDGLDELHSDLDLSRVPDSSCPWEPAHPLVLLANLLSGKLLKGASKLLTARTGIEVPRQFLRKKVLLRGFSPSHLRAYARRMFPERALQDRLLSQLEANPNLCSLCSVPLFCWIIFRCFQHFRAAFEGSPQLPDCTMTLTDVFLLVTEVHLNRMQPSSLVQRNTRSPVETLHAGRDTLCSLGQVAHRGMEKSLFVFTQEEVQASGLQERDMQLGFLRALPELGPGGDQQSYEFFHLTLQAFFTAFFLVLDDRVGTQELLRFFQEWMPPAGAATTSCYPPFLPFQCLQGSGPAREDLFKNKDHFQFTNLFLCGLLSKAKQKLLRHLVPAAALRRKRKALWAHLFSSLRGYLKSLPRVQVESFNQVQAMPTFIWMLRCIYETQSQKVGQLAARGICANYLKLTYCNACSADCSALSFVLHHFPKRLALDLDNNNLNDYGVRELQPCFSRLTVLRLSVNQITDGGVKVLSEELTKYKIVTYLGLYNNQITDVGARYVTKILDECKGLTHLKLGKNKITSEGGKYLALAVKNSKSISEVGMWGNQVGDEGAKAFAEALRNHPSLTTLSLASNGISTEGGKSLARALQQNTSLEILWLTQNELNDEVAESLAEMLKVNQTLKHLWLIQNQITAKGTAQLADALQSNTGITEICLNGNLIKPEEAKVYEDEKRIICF
NOD1 association with RIP2, Bid, or SGT-1, sequence (O43353 whole entry partner): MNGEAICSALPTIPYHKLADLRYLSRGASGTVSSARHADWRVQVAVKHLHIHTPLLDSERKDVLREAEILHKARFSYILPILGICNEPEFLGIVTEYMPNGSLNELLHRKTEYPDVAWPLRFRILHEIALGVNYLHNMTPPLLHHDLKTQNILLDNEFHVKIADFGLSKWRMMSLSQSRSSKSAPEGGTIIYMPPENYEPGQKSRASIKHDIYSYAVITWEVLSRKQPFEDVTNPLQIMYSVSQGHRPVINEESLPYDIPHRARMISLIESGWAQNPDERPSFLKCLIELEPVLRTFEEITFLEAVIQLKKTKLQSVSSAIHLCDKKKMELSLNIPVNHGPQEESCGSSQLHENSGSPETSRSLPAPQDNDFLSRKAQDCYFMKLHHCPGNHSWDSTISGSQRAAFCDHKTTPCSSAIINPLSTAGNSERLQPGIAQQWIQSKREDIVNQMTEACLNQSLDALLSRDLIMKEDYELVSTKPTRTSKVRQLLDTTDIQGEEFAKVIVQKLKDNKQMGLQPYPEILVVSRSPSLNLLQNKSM

Cc1ccc(S(=O)(=O)n2c(N)nc3ccccc32)cc1 [Compound 1]
Effect on NF-κB activation induced by BAFF [1]: not inhibited
Toxicity (LD50, μM) [2]: > 50 µM
Toxicity (LD50, μM) ([2]; listed as MLS-0350096): >50 µM
Plasma Stability (% Remaining at 3 hrs) (Plasma stability, human; Human, 3 hrs): 100/100 % Remaining
Stability in plasma (in words) (Plasma stability, human; human): high
Inhibition of MDP stimulated (NOD2-dependent) signaling (NOD2 [3]): not inhibiting
Tolerability ([4]; IP): well tolerated
Concentration (uM) 20 min ([4]; IP 15 mg/kg): 1.58 ± 0.06 µM
Concentration (uM) 120 min ([4]; IP 15 mg/kg): 0.12 ± 0.05 µM
Compound exposure (in words) ([4]; IP 30 mg/kg and 15 mg/kg, T=20 min): significant compound exposure
Concentration (uM) 20 min ([4]; IP 30 mg/kg): 5.24 ± 0.62 µM
Concentration (uM) 120 min ([4]; IP 30 mg/kg): 0.54 ± 0.04 µM
IC50 (TNF-α induced NF-κB; Homo sapiens, HEK-293T, read-out: TNF-α IC50(μM)): > 20 µM
Activity on TNFα induced NF-κB (in words) (TNF-α induced NF-κB; reporter assay, listed as CID1088438): selective
NOD2 compartmentalization (NOD2 [5]): No changes
Activity on MDP induced (NOD2) mediated IL-8 release (in words) (NOD2 [6]): inactivity
Solubility ([7]; aqueous buffer, pH 6.2, aqueous buffer): 1.7 µg/mL (≈ 5.92 µM)
Solubility ([7]; pH 5.0, aqueous buffer): 2.0 µg/mL (≈ 6.96 µM)
Solubility ([7]; pH 7.4, aqueous buffer): 2.0 µg/mL (≈ 6.96 µM)
Solubility (in words) ([7]; three pH levels): low
Permeability (Permeability; pH 5.0): 491 ×10⁻⁶ cm/s
Permeability (Permeability; pH 6.2): 562 ×10⁻⁶ cm/s
Permeability (Permeability; pH 7.4): 382 ×10⁻⁶ cm/s
Permeability (in words) (Permeability; three pH levels): high
Interference with NOD1 association with RIP2, Bid, or SGT-1 [8]: did not interfere
Microsomal Stability (% Remaining at 1 hr) ([9]; Mouse, 1 hr): 0.83 % Remaining
Stability in microsomes (in words) ([9]; mouse): low
Effect on IL-1β secretion induced by inflammasome activators (inflammasome): did not inhibit
Plasma Protein Binding (% Bound) ([10]; 1 μM): 97.74 % Bound
Plasma Protein Binding (% Bound) ([10]; 10 μM): 97.45 % Bound
Plasma protein binding (in words) ([10]; human): high
Plasma Stability (% Remaining at 3 hrs) (Plasma stability, mouse; Mouse, 3 hrs): 100/100 % Remaining
Stability in plasma (in words) (Plasma stability, mouse; mouse): high
Plasma Protein Binding (% Bound) ([11]; 1 μM): 95.45 % Bound
Plasma Protein Binding (% Bound) ([11]; 10 μM): 94.91 % Bound
Plasma protein binding (in words) ([11]; mouse): high
Microsomal Stability (% Remaining at 1 hr) ([12]; Human, 1 hr): 41.78 % Remaining
Stability in microsomes (in words) ([12]; human): moderate
